EP4745137A1 (Gluetacs Therapeutics (Shanghai) Co., Ltd., priority 2023, dated 2025)

How the values were obtained:
Type in all cases: cell-based
Conditions in all cases: 24 hours of compound treatment
IKZF1 = molecular target: T1, IKZF1 (Homo sapiens, UniProt Q13422+Q96SW2); experiment: Western-blot assay of substrate protein degradation in hPBMCs, IKZF1
T1 construct: endogenous in cells; host or cells: hPBMCs (Milecell Biotechnologies)
Experimental: (§1) After 24 hours of compounds treatment, cells were harvested and lysed in RIPA protein lysate containing protease inhibitors on ice for 30 min, followed by centrifugation. The supernatant was aspirated as the extracted total cell protein. The protein concentration of the supernatant was determined using the conventional BCA (Bicinchoninic Acid) assay. • (2) To the collected supernatant, 5X SDS sample loading buffer was added, followed by denaturation at 95°C for 5 minutes. The denatured samples were then separated by SDS-PAGE electrophoresis on a polyacrylamide gel, transferred onto a nitrocellulose membrane (0.45 µm NC membrane), blocked with blocking buffer at room temperature for 1 hour, and subjected to antibody incubation and development procedures according to the antibody manufacturer's instructions (Cell Signaling Technology Company). […]
(§2) Target protein remaining (%) refers to the percentage of target protein remaining in cells after treatment with protein degrader compounds.
(§3) Calculation method for target protein remaining (%): Use ImageJ software to measure grayscale values of Western blot bands from drug (protein degrader)-treated samples. The grayscale value of drug-treated bands is divided by that of internal control protein bands, and the resulting quotient is normalized to obtain the relative percentage of remaining target protein after protein degrader treatment. Target protein degradation rate(%) = 1−target protein remaining(%). [formula]

IKZF3 = molecular target: T2, IKZF3 (Homo sapiens, UniProt Q96SW2+Q9UKT9); experiment: Western-blot assay of substrate protein degradation in hPBMCs, IKZF3
T2 construct: endogenous in cells; host or cells: hPBMCs (Milecell Biotechnologies)
Experimental: as §1, §2, §3

CK1α = molecular target: T3, CK1α (Homo sapiens, UniProt P48729+Q96SW2); experiment: Western-blot assay of substrate protein degradation in hPBMCs, CK1α
T3 construct: endogenous in cells; host or cells: hPBMCs (Milecell Biotechnologies)
Experimental: as §1, §2, §3

GSPT1 = molecular target: T4, GSPT1 (Homo sapiens, UniProt P15170+Q96SW2); experiment: Western-blot assay of substrate protein degradation in hPBMCs, GSPT1
T4 construct: endogenous in cells; host or cells: hPBMCs (Milecell Biotechnologies)
Experimental: as §1, §2, §3

WEE1 = molecular target: T5, WEE1 (Homo sapiens, UniProt P30291+Q96SW2); experiment: Western-blot assay of substrate protein degradation in hPBMCs, WEE1
T5 construct: endogenous in cells; host or cells: hPBMCs (Milecell Biotechnologies)
Experimental: as §1, §2, §3

IKZF2 = molecular target: T6, IKZF2 (Homo sapiens, UniProt Q96SW2+Q9UKS7); experiment: Western-blot assay of substrate protein degradation in hPBMCs, IKZF2
T6 construct: endogenous in cells; host or cells: hPBMCs (Milecell Biotechnologies)
Experimental: as §1, §2, §3

[1] = 50 nM and 500 nM tested (concentration behind the class not stated)
[2] = compounds tested at 50 nM and 500 nM (concentration of the table not stated)

T6 sequence (Q9UKS7 whole entry): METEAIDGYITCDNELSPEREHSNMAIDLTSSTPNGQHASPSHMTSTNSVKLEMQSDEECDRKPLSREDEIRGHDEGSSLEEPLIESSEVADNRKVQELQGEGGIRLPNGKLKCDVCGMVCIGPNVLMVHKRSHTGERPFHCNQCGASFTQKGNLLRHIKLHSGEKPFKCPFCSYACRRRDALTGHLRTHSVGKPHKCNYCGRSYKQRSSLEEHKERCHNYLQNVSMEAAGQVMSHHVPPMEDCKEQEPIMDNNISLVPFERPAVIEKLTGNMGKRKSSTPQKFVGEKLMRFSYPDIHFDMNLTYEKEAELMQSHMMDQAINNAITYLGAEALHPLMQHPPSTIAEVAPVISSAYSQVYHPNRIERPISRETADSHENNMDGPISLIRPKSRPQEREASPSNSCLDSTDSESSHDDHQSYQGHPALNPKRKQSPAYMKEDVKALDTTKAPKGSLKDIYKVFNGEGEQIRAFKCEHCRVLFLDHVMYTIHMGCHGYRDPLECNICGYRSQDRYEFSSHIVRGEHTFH
T6 sequence (Q96SW2 whole entry): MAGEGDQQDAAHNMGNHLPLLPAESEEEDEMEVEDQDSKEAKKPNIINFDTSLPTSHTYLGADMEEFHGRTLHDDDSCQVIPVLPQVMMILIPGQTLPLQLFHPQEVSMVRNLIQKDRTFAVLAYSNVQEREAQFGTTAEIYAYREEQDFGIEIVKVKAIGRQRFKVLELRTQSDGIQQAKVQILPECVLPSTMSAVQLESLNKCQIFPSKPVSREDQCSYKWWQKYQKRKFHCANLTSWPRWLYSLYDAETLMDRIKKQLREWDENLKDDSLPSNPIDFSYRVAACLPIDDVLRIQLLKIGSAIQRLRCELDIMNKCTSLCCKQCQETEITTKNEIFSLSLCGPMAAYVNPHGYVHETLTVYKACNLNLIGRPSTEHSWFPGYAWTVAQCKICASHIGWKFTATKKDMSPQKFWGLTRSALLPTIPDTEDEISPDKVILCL
T6 sequence (Q16531 whole entry partner): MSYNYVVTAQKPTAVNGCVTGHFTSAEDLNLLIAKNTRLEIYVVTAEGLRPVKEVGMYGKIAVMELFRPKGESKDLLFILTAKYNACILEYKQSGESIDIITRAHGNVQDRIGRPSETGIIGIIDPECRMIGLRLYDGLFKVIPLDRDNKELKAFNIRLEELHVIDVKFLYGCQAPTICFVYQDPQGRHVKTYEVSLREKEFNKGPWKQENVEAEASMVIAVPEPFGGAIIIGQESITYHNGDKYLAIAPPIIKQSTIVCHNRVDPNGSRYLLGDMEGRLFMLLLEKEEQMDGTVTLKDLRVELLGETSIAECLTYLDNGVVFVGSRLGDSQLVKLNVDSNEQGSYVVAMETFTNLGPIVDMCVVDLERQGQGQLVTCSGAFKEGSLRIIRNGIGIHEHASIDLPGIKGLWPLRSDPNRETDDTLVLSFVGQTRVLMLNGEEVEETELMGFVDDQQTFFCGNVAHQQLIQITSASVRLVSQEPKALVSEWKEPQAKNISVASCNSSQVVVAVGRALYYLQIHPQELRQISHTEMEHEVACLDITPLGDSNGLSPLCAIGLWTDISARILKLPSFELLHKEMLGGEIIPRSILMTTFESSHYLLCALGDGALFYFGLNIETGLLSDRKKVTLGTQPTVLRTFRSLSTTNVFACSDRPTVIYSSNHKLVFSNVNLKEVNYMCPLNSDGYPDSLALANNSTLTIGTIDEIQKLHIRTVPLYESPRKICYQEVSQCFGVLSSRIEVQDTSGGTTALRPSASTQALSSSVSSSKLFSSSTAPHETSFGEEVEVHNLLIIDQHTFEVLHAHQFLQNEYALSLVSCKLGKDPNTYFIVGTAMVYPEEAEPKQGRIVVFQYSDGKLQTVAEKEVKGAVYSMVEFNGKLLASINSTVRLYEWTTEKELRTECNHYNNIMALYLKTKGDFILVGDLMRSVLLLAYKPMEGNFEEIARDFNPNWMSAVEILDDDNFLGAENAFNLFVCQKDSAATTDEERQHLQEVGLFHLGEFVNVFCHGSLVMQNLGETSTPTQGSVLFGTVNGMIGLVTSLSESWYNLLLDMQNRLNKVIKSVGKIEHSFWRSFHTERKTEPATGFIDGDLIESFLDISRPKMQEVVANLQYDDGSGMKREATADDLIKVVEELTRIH
T1 sequence (Q13422 whole entry): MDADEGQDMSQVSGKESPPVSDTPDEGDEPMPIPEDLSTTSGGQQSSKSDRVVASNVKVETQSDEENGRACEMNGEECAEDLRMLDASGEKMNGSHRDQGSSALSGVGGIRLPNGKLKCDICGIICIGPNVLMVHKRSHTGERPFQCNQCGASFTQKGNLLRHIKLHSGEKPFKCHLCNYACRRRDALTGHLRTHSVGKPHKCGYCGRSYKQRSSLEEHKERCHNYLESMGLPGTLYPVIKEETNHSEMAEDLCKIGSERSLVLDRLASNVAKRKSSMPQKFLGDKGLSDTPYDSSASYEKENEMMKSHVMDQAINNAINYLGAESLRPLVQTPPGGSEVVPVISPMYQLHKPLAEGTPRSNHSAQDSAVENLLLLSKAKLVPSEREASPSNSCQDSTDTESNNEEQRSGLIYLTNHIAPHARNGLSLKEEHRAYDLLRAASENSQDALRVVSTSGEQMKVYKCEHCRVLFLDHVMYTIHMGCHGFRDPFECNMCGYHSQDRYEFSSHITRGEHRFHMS
T1 sequence (Q96SW2 whole entry): as the sequence (Q96SW2 whole entry) above
T1 sequence (Q16531 whole entry partner): as the sequence (Q16531 whole entry partner) above
T5 sequence (P30291 whole entry): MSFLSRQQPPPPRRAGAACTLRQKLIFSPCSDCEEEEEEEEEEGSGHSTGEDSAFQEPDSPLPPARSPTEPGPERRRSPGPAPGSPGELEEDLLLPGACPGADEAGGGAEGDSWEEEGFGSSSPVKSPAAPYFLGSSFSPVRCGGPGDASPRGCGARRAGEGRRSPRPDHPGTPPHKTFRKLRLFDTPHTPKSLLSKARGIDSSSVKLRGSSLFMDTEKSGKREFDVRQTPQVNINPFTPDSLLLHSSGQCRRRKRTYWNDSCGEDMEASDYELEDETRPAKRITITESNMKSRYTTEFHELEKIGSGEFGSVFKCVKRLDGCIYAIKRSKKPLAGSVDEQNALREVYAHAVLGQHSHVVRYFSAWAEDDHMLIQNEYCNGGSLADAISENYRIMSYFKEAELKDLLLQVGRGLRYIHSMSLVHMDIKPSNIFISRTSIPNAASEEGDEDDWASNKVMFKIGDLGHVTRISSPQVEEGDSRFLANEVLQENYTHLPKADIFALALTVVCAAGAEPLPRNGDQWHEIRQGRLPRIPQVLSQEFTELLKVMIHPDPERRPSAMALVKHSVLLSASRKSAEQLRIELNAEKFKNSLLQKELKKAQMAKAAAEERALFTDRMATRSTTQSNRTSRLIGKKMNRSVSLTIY
T5 sequence (Q96SW2 whole entry): as the sequence (Q96SW2 whole entry) above
T5 sequence (Q16531 whole entry partner): as the sequence (Q16531 whole entry partner) above
T3 sequence (P48729 whole entry): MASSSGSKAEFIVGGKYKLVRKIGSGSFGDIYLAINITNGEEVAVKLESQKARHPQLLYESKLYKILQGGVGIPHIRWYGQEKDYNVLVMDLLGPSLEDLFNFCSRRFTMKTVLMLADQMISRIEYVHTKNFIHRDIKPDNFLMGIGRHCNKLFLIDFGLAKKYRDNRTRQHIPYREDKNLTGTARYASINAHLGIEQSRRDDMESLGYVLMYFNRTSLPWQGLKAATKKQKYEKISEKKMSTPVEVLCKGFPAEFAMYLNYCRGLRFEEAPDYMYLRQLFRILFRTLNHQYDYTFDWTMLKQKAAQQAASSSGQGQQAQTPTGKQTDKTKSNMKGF
T3 sequence (Q96SW2 whole entry): as the sequence (Q96SW2 whole entry) above
T3 sequence (Q16531 whole entry partner): as the sequence (Q16531 whole entry partner) above
T2 sequence (Q9UKT9 whole entry): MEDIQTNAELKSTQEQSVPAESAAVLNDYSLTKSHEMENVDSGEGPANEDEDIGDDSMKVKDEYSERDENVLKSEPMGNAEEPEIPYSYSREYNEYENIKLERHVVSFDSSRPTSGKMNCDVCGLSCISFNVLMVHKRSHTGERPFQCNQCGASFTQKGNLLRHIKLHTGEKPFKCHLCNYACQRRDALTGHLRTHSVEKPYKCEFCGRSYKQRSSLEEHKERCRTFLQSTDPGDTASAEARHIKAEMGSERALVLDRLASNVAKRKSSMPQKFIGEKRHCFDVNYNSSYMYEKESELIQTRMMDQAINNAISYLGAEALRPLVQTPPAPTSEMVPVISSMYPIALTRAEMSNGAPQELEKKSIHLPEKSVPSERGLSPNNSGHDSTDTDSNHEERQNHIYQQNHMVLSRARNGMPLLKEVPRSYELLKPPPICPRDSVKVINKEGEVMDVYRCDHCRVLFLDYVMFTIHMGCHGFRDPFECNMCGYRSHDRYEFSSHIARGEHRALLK
T2 sequence (Q96SW2 whole entry): as the sequence (Q96SW2 whole entry) above
T2 sequence (Q16531 whole entry partner): as the sequence (Q16531 whole entry partner) above

| SMILES | IKZF 1 substrate protein remaining % (IKZF1; [1]) | IKZF3 substrate protein remaining % (IKZF3; [1]) | CK1a substrate protein remaining % (CK1α; [1]) | GSPT1 substrate protein remaining % (GSPT1; [1]) | Weel substrate protein remaining % (WEE1; [1]) | IKZF2 substrate protein remaining % (IKZF2; [1]) | IKZF 1 substrate protein remaining % (IKZF1; [2]) | IKZF3 substrate protein remaining % (IKZF3; [2]) | CK1a substrate protein remaining % (CK1α; [2]) | GSPT1 substrate protein remaining % (GSPT1; [2]) | Weel substrate protein remaining % (WEE1; [2]) | IKZF2 substrate protein remaining % (IKZF2; [2]) |
| --- | --- | --- | --- | --- | --- | --- | --- | --- | --- | --- | --- | --- |
| O=C1CCC(N2C(=O)c3ccc(CN4CCC(c5ncnc6sc(-c7ccccc7)cc56)CC4)cc3C2=O)C(=O)N1 (stereo not drawn) [GT-06594, 2-(2,6-dioxopiperidin-3-yl)-5-((4-(6-phenylthieno[2,3-d]pyrimidin-4-yl)piperidin-1-yl)methyl)isoindoline-1,3-dione] | A (0% ≤ substrate protein remaining % ≤ 80%) | A (0% ≤ substrate protein remaining % ≤ 80%) | B (80%< substrate protein remaining %≤ 100%) | A (0% ≤ substrate protein remaining % ≤ 80%) | A (0% ≤ substrate protein remaining % ≤ 80%) | A (0% ≤ substrate protein remaining % ≤ 80%) | – | – | – | – | – | – |
| O=C1CCC(N2Cc3cc(CN4CCN(Cc5ccc(C67CC8CC(CC(C8)C6)C7)cc5)CC4)ccc3C2=O)C(=O)N1 (stereo not drawn) [GT-03026, 3-(5-((4-(4-((3r,5r,7r)-adamantan-1-yl)benzyl)piperazin-1-yl)methyl)-1-oxoisoindolin-2-yl)piperidine-2,6-dione] | – | – | – | – | – | – | A (0% ≤ substrate protein remaining % ≤ 80%) | A (0% ≤ substrate protein remaining % ≤ 80%) | A (0% ≤ substrate protein remaining % ≤ 80%) | A (0% ≤ substrate protein remaining % ≤ 80%) | B (80%< substrate protein remaining %≤ 100%) | A (0% ≤ substrate protein remaining % ≤ 80%) |
| O=C1CCC(N2C(=O)c3ccc(CN4CCN(c5cccc(Cl)c5Cl)CC4)cc3C2=O)C(=O)N1 (stereo not drawn) [GT-06273, 5-((4-(2,3-dichlorophenyl)piperazin-1-yl)methyl)-2-(2,6-dioxopiperidin-3-yl)isoindoline-1,3-dione] | A (0% ≤ substrate protein remaining % ≤ 80%) | A (0% ≤ substrate protein remaining % ≤ 80%) | A (0% ≤ substrate protein remaining % ≤ 80%) | A (0% ≤ substrate protein remaining % ≤ 80%) | A (0% ≤ substrate protein remaining % ≤ 80%) | A (0% ≤ substrate protein remaining % ≤ 80%) | – | – | – | – | – | – |
| O=C1CCC(N2C(=O)c3ccc(CN4CCN(c5nc(Cl)nc6c5SCC6)CC4)cc3C2=O)C(=O)N1 (stereo not drawn) [GT-06710, 5-((4-(2-chloro-6,7-dihydrothieno[3,2-d]pyrimidin-4-yl)piperazin-1-yl)methyl)-2-(2,6-dioxopiperidin-3-yl)isoindoline-1,3-dione] | B (80%< substrate protein remaining %≤ 100%) | B (80%< substrate protein remaining %≤ 100%) | B (80%< substrate protein remaining %≤ 100%) | A (0% ≤ substrate protein remaining % ≤ 80%) | B (80%< substrate protein remaining %≤ 100%) | A (0% ≤ substrate protein remaining % ≤ 80%) | – | – | – | – | – | – |
| O=C1CCC(N2C(=O)c3ccc(CN4CCN(c5cc(F)cc(F)c5)CC4)cc3C2=O)C(=O)N1 (stereo not drawn) [GT-06365, 5-((4-(3,5-difluorophenyl)piperazin-1-yl)methyl)-2-(2,6-dioxopiperidin-3-yl)isoindoline-1,3-dione] | B (80%< substrate protein remaining %≤ 100%) | B (80%< substrate protein remaining %≤ 100%) | B (80%< substrate protein remaining %≤ 100%) | A (0% ≤ substrate protein remaining % ≤ 80%) | B (80%< substrate protein remaining %≤ 100%) | B (80%< substrate protein remaining %≤ 100%) | – | – | – | – | – | – |
| O=C1CCC(N2C(=O)c3ccc(CN4CCN(c5ccnc(Cl)c5)CC4)cc3C2=O)C(=O)N1 (stereo not drawn) [GT-06619, 5-((4-(2-chloropyridin-4-yl)piperazin-1-yl)methyl)-2-(2,6-dioxopiperidin-3-yl)isoindoline-1,3-dione] | B (80%< substrate protein remaining %≤ 100%) | A (0% ≤ substrate protein remaining % ≤ 80%) | B (80%< substrate protein remaining %≤ 100%) | A (0% ≤ substrate protein remaining % ≤ 80%) | B (80%< substrate protein remaining %≤ 100%) | B (80%< substrate protein remaining %≤ 100%) | – | – | – | – | – | – |
| O=C1CCC(N2C(=O)c3ccc(CN4CCC(c5ccccc5Cl)CC4)cc3C2=O)C(=O)N1 (stereo not drawn) [GT-06371, 5-((4-(2-chlorophenyl)piperidin-1-yl)methyl)-2-(2,6-dioxopiperidin-3-yl)isoindoline-1,3-dione] | A (0% ≤ substrate protein remaining % ≤ 80%) | B (80%< substrate protein remaining %≤ 100%) | B (80%< substrate protein remaining %≤ 100%) | A (0% ≤ substrate protein remaining % ≤ 80%) | B (80%< substrate protein remaining %≤ 100%) | B (80%< substrate protein remaining %≤ 100%) | – | – | – | – | – | – |
| O=C1CCC(N2Cc3c(CN4CCC(c5noc6cc(F)ccc56)CC4)cccc3C2=O)C(=O)N1 (stereo not drawn) [GT-04764, 3-(4-((4-(6-fluorobenzo[d]isoxazol-3-yl)piperidin-1-yl)methyl)-1-oxoisoindolin-2-yl)piperidine-2,6-dione] | – | – | – | – | – | – | B (80%< substrate protein remaining %≤ 100%) | B (80%< substrate protein remaining %≤ 100%) | A (0% ≤ substrate protein remaining % ≤ 80%) | A (0% ≤ substrate protein remaining % ≤ 80%) | A (0% ≤ substrate protein remaining % ≤ 80%) | B (80%< substrate protein remaining %≤ 100%) |
| O=C1CCC(N2C(=O)c3ccc(CN4CCN(c5c(F)cncc5Cl)CC4)cc3C2=O)C(=O)N1 (stereo not drawn) [GT-06600, 5-((4-(3-chloro-5-fluoropyridin-4-yl)piperazin-1-yl)methyl)-2-(2,6-dioxopiperidin-3-yl)isoindoline-1,3-dione] | B (80%< substrate protein remaining %≤ 100%) | B (80%< substrate protein remaining %≤ 100%) | B (80%< substrate protein remaining %≤ 100%) | A (0% ≤ substrate protein remaining % ≤ 80%) | B (80%< substrate protein remaining %≤ 100%) | B (80%< substrate protein remaining %≤ 100%) | – | – | – | – | – | – |
| O=C1CCC(N2C(=O)c3ccc(CN4CCN(c5noc6ccncc56)CC4)cc3C2=O)C(=O)N1 (stereo not drawn) [GT-06630, 2-(2,6-dioxopiperidin-3-yl)-5-((4-(isoxazolo[4,5-c]pyridin-3-yl)piperazin-1-yl)methyl)isoindoline-1,3-dione] | B (80%< substrate protein remaining %≤ 100%) | B (80%< substrate protein remaining %≤ 100%) | A (0% ≤ substrate protein remaining % ≤ 80%) | A (0% ≤ substrate protein remaining % ≤ 80%) | A (0% ≤ substrate protein remaining % ≤ 80%) | A (0% ≤ substrate protein remaining % ≤ 80%) | – | – | – | – | – | – |
| O=C1CCC(N2C(=O)c3ccc(CN4CCN(c5cc(Cl)cc(Cl)c5)CC4)cc3C2=O)C(=O)N1 (stereo not drawn) [GT-06299, 5-((4-(3,5-dichlorophenyl)piperazin-1-yl)methyl)-2-(2,6-dioxopiperidin-3-yl)isoindoline-1,3-dione] | B (80%< substrate protein remaining %≤ 100%) | B (80%< substrate protein remaining %≤ 100%) | B (80%< substrate protein remaining %≤ 100%) | A (0% ≤ substrate protein remaining % ≤ 80%) | B (80%< substrate protein remaining %≤ 100%) | B (80%< substrate protein remaining %≤ 100%) | – | – | – | – | – | – |
| O=C1CCC(N2C(=O)c3ccc(CN4CCN(c5ncccc5F)CC4)cc3C2=O)C(=O)N1 (stereo not drawn) [GT-06526, 2-(2,6-dioxopiperidin-3-yl)-5-((4-(3-fluoropyridin-2-yl)piperazin-1-yl)methyl)isoindoline-1,3-dione] | B (80%< substrate protein remaining %≤ 100%) | A (0% ≤ substrate protein remaining % ≤ 80%) | B (80%< substrate protein remaining %≤ 100%) | A (0% ≤ substrate protein remaining % ≤ 80%) | A (0% ≤ substrate protein remaining % ≤ 80%) | A (0% ≤ substrate protein remaining % ≤ 80%) | – | – | – | – | – | – |
